# Source: PMC6713354, “Structural and biochemical studies of an NB-ARC domain from a plant NLR immune receptor” (PLoS ONE, 2019)
# Assays:
# NRC1 NB-ARC domain [1] = biological target: T1, NRC1 NB-ARC domain (Solanum lycopersicum, UniProt A1X877); experiment: X-ray crystal structure, […] A (native); SeMet SAD map at […] A; conditions: co-purified ligand; nucleotide-binding pocket; E. coli-expressed protein; crystals at pH 4.5
# T1 construct: NB-ARC domain, residues 150-494; E. coli Lemo21(DE3) (pOPIN-S3C, 6xHis-SUMO) or Sf9 cells (pOPIN-F, 6xHis); N-terminal tag cut with 3C protease; 346 residues in expressed construct; about 40 kDa monomer
# T1 sequence (A1X877 entry or part of it): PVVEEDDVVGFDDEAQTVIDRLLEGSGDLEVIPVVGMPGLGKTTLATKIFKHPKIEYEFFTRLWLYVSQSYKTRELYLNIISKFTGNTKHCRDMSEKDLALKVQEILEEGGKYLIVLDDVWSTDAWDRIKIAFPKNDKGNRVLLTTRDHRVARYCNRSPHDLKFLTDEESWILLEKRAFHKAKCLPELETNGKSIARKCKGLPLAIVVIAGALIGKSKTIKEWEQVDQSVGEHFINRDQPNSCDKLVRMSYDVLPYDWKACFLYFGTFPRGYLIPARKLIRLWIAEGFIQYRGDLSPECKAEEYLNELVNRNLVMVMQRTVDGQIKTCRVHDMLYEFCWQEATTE
# NRC1 NB-ARC domain [2] = biological target: T1, NRC1 NB-ARC domain; experiment: luciferase assay of nucleotide released by boiling, ADP converted to ATP with pyruvate kinase; assay type: binding; conditions: co-purified ligand, no ADP added; protein from E. coli and from Sf9 cells; no ATP detected
# NRC1 NB-ARC domain [3] = biological target: T2, NRC1 NB-ARC domain (Solanum lycopersicum, UniProt A1X877, D268N); experiment: as above; assay type: binding; conditions: co-purified ligand, no ADP added; protein from Sf9 cells; Walker B mutant; no ATP detected
# T2 construct: NB-ARC domain, residues 150-494; E. coli Lemo21(DE3) (pOPIN-S3C, 6xHis-SUMO) or Sf9 cells (pOPIN-F, 6xHis); N-terminal tag cut with 3C protease; 346 residues in expressed construct; about 40 kDa monomer
# T2 sequence (A1X877 entry or part of it D268N): as the sequence (A1X877 entry or part of it) above, with D119N counted along it
structure (smiles),measurement,setting,value
Nc1ncnc2c1ncn2[C@@H]1O[C@H](COP(=O)(O)OP(=O)(O)O)[C@@H](O)[C@H]1O [ADP],"X-ray crystal structure, 2.5 A (native); SeMet SAD map at 3.03 A",NRC1 NB-ARC domain [1],"allowed us to unambiguously position a molecule of ADP, and the side-chains of interacting residues"
same,% ADP occupancy,NRC1 NB-ARC domain [2],all three NRC1 NB-ARC proteins co-purified with ADP with high occupancy
same,% ADP occupancy,NRC1 NB-ARC domain [3],"NRC1 NB-ARC^D268N, a mutant designed to abolish ATPase activity, also co-purified with ADP"
